According to patent US20240157358A1, “BIOSENSING SYSTEM AND METHOD FOR IN-SITU DETERMINATION OF METASTASIS IN A SAMPLE” (City University of Hong Kong, priority 2022, published 2024):

Test system: C. elegans
Test: C. elegans chemotaxis assay in the microfluidic biosensor
Type: in vivo, Caenorhabditis elegans
Settings: for nematode chemotaxis score: single substance at lower concentrations, corresponding to metastatic cancer, heat maps FIGS. 7C and 7D; for CIPBS level (chemotaxis index relative to PBS): CI level of PBS buffer standards defined as 1, FIG. 3B
Description: It was cultured in the OP50, a strain of Escherichia coli used to maintain C. elegans cultures, with nematode growth media (NGM) plate. Before each biosensing assay, the viability of C. elegans was assessed by probing with an inoculation needle.
All materials required for performing biosensing assay in the present biosensing system should be kept at room temperature before loading C. elegans into the biosensor to maintain their viability. Briefly, medium supernatants at −80° C. and biosensor initially stored in a 4° C. freezer were thawed at room temperature. Adult C. elegans were collected in 1.5 mL tubes and washed twice with phosphate-buffered saline (PBS) buffer (Gibco, Waltham, MA, USA) before assay. All clinical samples to be tested were transported at room temperature, and the biosensing assay should be completed within 4 hours from the time of collection. The clinical samples should be mixed well before loading, and about 1 ml of the sample was taken into a 1.5 ml tube for each biosensing assay. The remaining samples could be sealed and stored at −80° C. for further use.
During each biosensing assay, approximately 50-100 μl of PBS containing 100 C. elegans was gently pipetted into the middle of the second layer where the organism loading region is disposed without compromising the viability of C. elegans and disrupting the integrity of the NGM agar, thereby increasing the reliability of the biosensing assay results. Once the C. elegans were settled, the pressure pump was started immediately to flow the test samples, comparative sample and/or negative control to the corresponding bio-incubation chambers from the fluid inlets at the first layer and through different fluid channels to reach the second layer without damaging the NGM agar integrity. In certain embodiments, an optimal flow rate of the fluid applied to the biosensor is about 0.5 mL/min. […] By this optimal flow rate, all fluid channels can be primed in 1 min and about 10 to 100 μl droplets can be formed at each fluid outlet of the fluid channels. Because of that, the volume of the test samples applied in each fluid inlet at each round of biosensing assay can be less than 1 mL. […]
To standardize the quantitative readouts, a chemotaxis index (CI) relative to the CI measured from PBS (CIPBS) was derived by the following Equation:
The CIPBS level readouts were evaluated with the present biosensing system using a range of glutamate concentration levels that included concentrations detected from MCF-7 and MDA-MB-231 clusters (0.02 mg/ml, 0.04 mg/ml, 0.06 mg/ml, 0.08 mg/ml, and 0.1 mg/ml) (FIG. 3A). CI level readouts were modified for parallel comparison of all concentrations, with the CI level obtained from PBS buffer standards defined as 1.

**Q.** Which nematode chemotaxis score does the source give for `O=C(O)[C@@H]1CCCN1` [L-proline] here?
**A.** The nematode chemotaxis score was “around 6”.

**Q.** With `N[C@@H](CCC(=O)O)C(=O)O` [glutamate] as the molecule, how does the “CIPBS level (chemotaxis index relative to PBS)” value (glutamate concentration 0.02 mg/ml) read?
**A.** Its value is 3.6±0.03.

**Q.** And the “CIPBS level (chemotaxis index relative to PBS)” value (glutamate concentration 0.1 mg/ml (highest tested))?
**A.** The value was 1.1±0.04.

**Q.** `NC(N)=O` [urea] was tested. Which nematode chemotaxis score did it give?
**A.** The nematode chemotaxis score was “around 6”.
